The record followed here is ChEMBL document CHEMBL3272304, “Syntheses of heterocylic fused thiazole acetic acids. 2” (1976).

SMILES strings stand for the structures. The source made the active and inactive calls. The calls are words filed in the database; no cut-off is given here.

Common to all, as to type: functional
Experiment [1] has as its system Mycobacterium tuberculosis. The experiment in a line: Antitubercular activity against Mycobacterium tuberculosis H37Rv.
Another experiment relates to Mus musculus. The experiment in a line: Antidepressant activity in po dosed mouse assessed as antagonism of reserpine-induced ptosis.
The test system of experiment [2] is Lewis lung carcinoma cell line. Nature of the experiment: Antimetastatic activity against mouse LLC cells allografted in BDF1 mouse assessed as increase in host survival.
For experiment [3], the system named is Lewis lung carcinoma cell line. The experiment in a line: Antimetastatic activity against mouse LLC cells allografted in BDF1 mouse assessed as increase in host survival at 150 mg/kg relative to control.

`CCOC(=O)CC(Sc1nc2ccccc2[nH]1)C(=O)c1ccc(Cl)cc1` (configuration not stated) had an Activity in experiment [1] of 1 µg/mL.

Compound `Br.COC(=O)CC1Sc2nc3ccccc3n2C1(O)c1ccccc1` (configuration not stated) yielded an Activity in experiment [1] of 5 µg/mL.

Broadly, the ED50 is the midpoint of the dose-response relation. For `Br.O=C(O)CC1SC2=NCCN2C1(O)c1ccc(Cl)cc1` (configuration not stated), the ED50 in the experiment on Mus musculus came to 0.22 mg/kg.

Take `CCOC(=O)CC1Sc2nc3ccccc3n2C1(O)c1ccc(Cl)cc1` (configuration not stated): the result in experiment [2] was Active. In experiment [1], the Activity was determined as 1 µg/mL.

In turn, `Br.CCOC(=O)CC1SC2=NCCN2C1(O)c1ccc(Cl)cc1` (configuration not stated) had an Activity in experiment [1] of 5 µg/mL.

As a reminder, the T/C is the ratio of treated to control. As for `O=C(O)CC1Sc2nc3ccccc3n2C1(O)c1ccc(Cl)cc1` (configuration not stated), the T/C in experiment [3] was determined as 37%.

In the case of `Br.O=C(O)CC1SC2=NCCCN2C1(O)c1ccc(Cl)cc1` (configuration not stated), in experiment [2], the result was inactive. Further, the 50% effective dose (ED50) with Mus musculus was found to be 0.25 mg/kg.

Compound `Br.CCOC(=O)CC1SC2=NCCN2C1(O)c1ccccc1` (configuration not stated) had an Activity in experiment [1] of 5 µg/mL. In the experiment on Mus musculus, the ED50 was determined as 0.27 mg/kg.

For the compound `COC(=O)CC1Sc2nc3ccccc3n2C1(O)c1ccc(Cl)cc1` (configuration not stated), in experiment [2], the result was Active. Also, the Activity in experiment [1] is 2 µg/mL.

In experiment [1], `Br.COC(=O)CC1SC2=NCCN2C1(O)c1ccc(Cl)cc1` (configuration not stated) had an Activity of 1 µg/mL. Besides, the median effective dose (ED50) in the experiment on Mus musculus was found to be 0.5 mg/kg.

`NNC(=O)c1ccncc1` [ISONIAZID]: in experiment [1], the Activity stood at 0.005 µg/mL.

Take `O=C(O)Cc1sc2nc3ccccc3n2c1-c1ccc(Cl)cc1`: in experiment [2], the result was Active.

For `COC(=O)CC(Sc1nc2ccccc2[nH]1)C(=O)c1ccc(Cl)cc1` (configuration not stated), in experiment [1], the Activity is 1 µg/mL.

In turn, `CCOC(=O)CC1Sc2nc(=O)cc(NC(C)=O)n2C1(O)c1ccc(Cl)cc1` (configuration not stated) had an Activity in experiment [1] of 1 µg/mL.

In experiment [1], `Br.COC(=O)CC1SC2=NCCN2C1(O)c1ccccc1` (configuration not stated) registered an Activity of 5 µg/mL. In the experiment on Mus musculus, the ED50 came out at 0.5 mg/kg.

On to `Br.CCOC(=O)CC1SC2=NCCCN2C1(O)c1ccc(Cl)cc1` (configuration not stated), for which the 50% effective dose (ED50) with Mus musculus came out at 0.118 mg/kg.
